Experiment [1] has as its system NSC19 cells. Briefly: FACS cell death assay (GFP and PI positive cells) after Aβ(1-40) exposure. Type of experiment: cell-based, mouse. Conditions: GFP-expressing NSC19 cultures, Aβ for 48 h. The procedure: Lyophilized, HPLC purified β-amyloid, Aβ25-35, Aβ1-40 , Aβ1-42 and Aβ40-1 were obtained from either Sigma Chemical Co., U.S. Peptide (Fullerton, Calif.) or Bachem (Torrance, Calif.), respectively. Peptides were reconstituted in double-distilled H2O at 10 mM Aβ. To age the β-amyloid in vitro and produce aggregated, fibrillar Aβ, an aliquot of the Aβ stock solution was dissolved at the indicated concentration in culture medium and incubated at 37° C. for 3 to 5 days. Cells were incubated with the appropriate Aβ peptide concentration for the indicated times and examined for immunofluorescence or cell death assay.
Cells were analyzed by fluorescence-activated cell sorting (FACS) analysis on a FACSTAR PLUS (Becton-Dickinson) and analyzed with Cell Quest software. FACS analysis for two color analysis used GFP and either 7-amino-actinomycin (7-AAD) or propidium iodide
(§1) (PI) for cell death or GFP and phycoerythrin (PE)-conjugated annexin V for early apoptosis. The percentage of cell death was quantified as those cells expressing GFP and either annexin V or 7-AAD staining relative to total GFP expressing cells. Experiments were performed in triplicate with 10,000 events counted. TUNEL staining was performed according to manufacturer's instructions (Roche).
Neurotoxicity induced by Aβ(1-40) exposure was further examined using clonal cells expressing GFP-fused mutant forms of DENN. […]

Experiment [2] has as its system NSC19 cells. Put plainly: Annexin V FACS apoptosis assay, NSC19 cells overexpressing DENN or DENN mutants, Aβ(1-40) with or without SB203580. The class given is cell-based, mouse. As to conditions: 10 μM SB203580 with Aβ(1-40). The text has this:
In contrast to primary CNS cultures, NSC19 are more readily transfectable and highly responsive to apoptosis (Smirnova et al., 1998; Citron et al, 1997). Cells were maintained in high glucose Dulbecco's Modified Eagle's Medium (DMEM) (GIBCO-BRL/Life Technologies, Rockville, Md.) supplemented with 10% fetal bovine serum (FBS) and 1% streptomycin/penicillin. Neuro2A cells (CCL-131), C0S7 (CRL-1651) and human embryonic kidney 293 (CRL-1573) cells were acquired from ATCC. Murine neuroblastoma Neuro2A (N2A) were grown in MEM supplemented with 10% FBS, while COS7 and 293 were maintained in DMEM supplemented with 10% FBS. Cells were plated (5 ×10^5 cells/ml) in 35-mm dishes and transfected with 1 μg total DNA using Effectene or SuperFect (Qiagen) as described by the manufacturer. […]
Cells were analyzed by fluorescence-activated cell sorting (FACS) analysis on a FACSTAR PLUS (Becton-Dickinson) and analyzed with Cell Quest software. […]
(PI) for cell death or GFP and phycoerythrin (PE)-conjugated annexin V for early apoptosis. The percentage of cell death was quantified as those cells expressing GFP and either annexin V or 7-AAD staining relative to total GFP expressing cells. Experiments were performed in triplicate with 10,000 events counted. […]

Experiment [3] relates to JNK. Conditions: at 10 μM; cited from earlier work.
For experiment [4], the system named is DENN. Briefly: Western blot of endogenous DENN in stressed neuroblastoma cultures. The class given is cell-based, mouse. As to conditions: for DENN expression in cultures treated with oxidative stress factors: data not shown. The procedure: (§2) A) NSC19 and N2A cells were exposed to 0.1% BSA (Control) or 20 μM fibrillar Aβ(1-40) for 48 h. Cell extracts (100 μg) were immunoblotted with DENN antibody and reprobed with actin antibody. DENN reactive bands appear at ˜200 kD and ˜140 kD. DENN protein expression is higher in NSC19 relative to N2A cells. Aβ exposure dramatically reduces DENN protein expression. Similar results were obtained in three independent experiments. B) Total RNA from Control and Aβ exposed N2A cultures was extracted and RT-PCR using either DENN or actin specific primers was performed. […] Results are representative of three independent experiments. C) Primary rat hippocampal neurons were exposed to 25 μM Aβ(1-42) for 24 h, fixed in 4% PFA and stained with antibodies specific for DENN, phospho-JNK (P-JNK) and counterstained with Hoechst 33342 for nuclei.
NSC 19 cells were harvested after the appropriate treatments by scraping into cold PBS and centrifuging at 1500 ×g for 5 min at 4° C. Cells were then lysed in buffer A (20 mM Tris-Cl, pH 7.5, 1% Triton X-100, 0.5% NP-40, 0.1 M NaCl, 20 mM β-glycerophosphate, 2 mM EDTA, 2 mM sodium pyrophosphate, 10% glycerol, 10 μg/ml leupeptin and 2 mM phenylmethylsulfonyl fluoride) for 20 min on ice followed by four 5-second sonication bursts on ice. Lysates were centrifuged at 14,000 ×g for 10 min at 4° C. Protein concentrations were measured by the Bradford (1976) assay using bovine serum albumin (BSA) standards. Approximately 50 μg of cell lysates were mixed with 2Xsample buffer and boiled for 5 min. Samples were resolved by 10% SDS-polyacrylamide gel electrophoresis (PAGE), transferred to nitrocellulose membranes, blocked in 5% skim milk and 1% BSA in 1XTBS, and incubated overnight at 4° C. with primary antibody at indicated dilutions. Blots were then washed with TBS buffer containing 0.15% Tween 20 (washing buffer), incubated with a 1:1000 dilution of anti-mouse or anti-rabbit IgG-conjugated horseradish peroxidase for 1 h at room temperature, washed again and processed by ECL detection (Amersham). […]
(In general: A western blot detects proteins with antibodies after separation by electrophoresis.)

Experiment [5] relates to DENN. Put plainly: RT-PCR of DENN RNA in Aβ-exposed N2A cultures. Conditions: N2A cells. The class given is cell-based, murine. The method, then: as §2
Total RNA was purified using the RNeasy miniprep kit (Qiagen) and resuspended in 50 μt RNase free water. For each RT-PCR, 1 μg RNA was subjected to One-Step RT-PCR using Omniscript and Sensiscript Reverse transcriptases, HotStarTaq DNA polymerase and 0.5 μM of DENN primers: sense, SEQ ID NO: 6: 5′-[…]-3′ and antisense, SEQ ID NO: 1: 5′-[…]-3′, for 30 cycles with the following conditions: 94° C., 30 s; 60° C., 1 min; 72° C., 1 min. Human and murine actin prim were supplied by Clontech.
RNA expression was compared in N2A cells (FIG. 6B).

In experiment [6] the test system is neuronal PC12 cells and sympathetic neurons. As to conditions: cited from earlier work.
The test system of experiment [7] is JNK3. As to conditions: cited from earlier work.
The subject of experiment [8] is JNK. Briefly: JNK immunoprecipitation in vitro kinase assay (GST-c-Jun substrate) from Aβ-exposed N2A clones. The class given is cell-based, murine. Conditions: 1 μM CEP11004 with 25 μM Aβ(1-42), 24 h; N2A clones expressing GFP or DENN. The method, then: For kinase assays, cells were exposed to 25 μM Aβ(1-40) in the absence or presence of 1 μM CEP11004 for the specified duration. Cell extracts were prepared, incubated with 5 μl JNK antibody for 4 h at 4° C. and precipitated with 60 μl 50% slurry protein A/G sepharose overnight at 4° C. Immunoprecipitates were washed, then incubated with 1 μg GST-cJun (1-79) and 50 μM ATP in 40 μl for 30 min at 30° C. Reactions were terminated with 40 μl Laemmli buffer, boiled for 4 min, centrifuged and 40 μl was loaded onto 10% SDS-PAGE, transferred to nitrocellulose and probed with phospho-c-Jun (Ser73) antibody.
N2A clones expressing GFP or DENN were exposed to 25 μM Aβ(1-42) either in the absence or presence of 1 μM CEP11004. Previously, inhibitiori of Aβ-induced cell death in neuronal PC12 cells and sympathetic neurons required less than 300 nM CEP1347 (Troy et al., 2001). After 24 h Aβ exposure, JNK was immunoprecipitated from cell extracts and incubated with GST-c-Jun substrate and ATP in an in vitro kinase assay. The reactions were immunoblotted with antibody specific to phosphorylated c-Jun. […] Thus, reduction of cell death and JNK activity by JNK inhibitors in DENN overexpressing cell cultures supports DENN involvement in c-Jun activation and cellular apoptosis.

Experiment [9] concerns mouse primary hippocampal neurons. Put plainly: TUNEL cell death assay in primary hippocampal neurons. The class given is cell-based. Conditions: for Aβ-induced cell death (TUNEL positive cells): CEP11004 with 25 μM Aβ(1-42), 24 h, Control-AS or DENN-AS treated hippocampal cultures. The procedure:
Primary mouse and rat hippocampal neurons were prepared from newborn C57B1/6 mouse or Sprague-Dawley rat pups. Briefly, hippocampi were dissected out, minced and digested with 100 U papain and 0.2 μg/ml DNaseI. Following digestion, cells were 'triturated with fire-polished Pasteur pipets and centrifuged in media containing 20 μg/ml BSA. Cells were plated on collagen-coated or poly-lysine coated plates at a density of 3×10^6 cells/ml in Neurobasal medium with B27 supplement and antibiotics (Life Technologies, Gaithersburg, Md.). One day after plating, cells were exposed to 5 μM cytosine arabinoside for 4 d to kill dividing cells. Experiments were performed after 6-8 days in vitro (DIV).
as §1
To assess cell death in neuronal cultures exposed to anti-sense oligonucleotides and Aβ, TUNEL staining was performed (FIG. 9B). […] However, due to the increased TUNEL staining with DENN-AS treated cultures, the overall cell death with Aβ was 10-15% greater in these cultures (FIG. 9C). DENN-AS treatment alone increased cell death by 20%. […] Furthermore, the level of cell death observed with Aβ was abrogated by exposing neuronal cultures to 1 βM CEP11004.

This is an account of results in patent US20030162734A1, “Modulation of DENN-MADD expression and interactions for treating neurological disorders” (priority 2001, published 2003).

Entries after “also recorded” stand apart in the source; their conditions may differ.

“Aβ(1-40): β-amyloid peptide 1-40, aged in vitro to aggregated, fibrillar form”: the “increase in cell death after Aβ exposure” value in [1] is reported as “five-fold”.

In the case of `C[S+]([O-])c1ccc(-c2nc(-c3ccc(F)cc3)c(-c3ccncc3)[nH]2)cc1` (centres unmarked) [SB203580, 4-(4-fluorophenyl)-2-(4-methylsulfinylphenyl)-5-(4-pyridyl)-1H-imidazole], the “cell death/apoptosis in DENN-JBD transfected cells with Aβ/SB203580 co-treatment” value in experiment [2] (NSC19 DENN-JBD transfectants, p<0.05) is listed as “reproducible increase in cell death; also recorded: slight increase in apoptosis”. The “apoptotic response (GFP and annexin V positive cells) to Aβ in cells overexpressing DENN or DENN-CT” value in experiment [2] (NSC19 cells overexpressing DENN or DENN-CT, p<0.01) is reported as “significantly attenuated apoptotic response; also recorded: decreased”. In addition, the JNK activity inhibition result in experiment [3] is “JNK activity is also inhibited”.

For the compound “Aβ: β-amyloid peptide; per FIG. 6 legend 20 μM fibrillar Aβ(1-40)”, the “reduction of endogenous DENN protein” value in experiment [4] (NSC19 and N2A cells, 20 μM fibrillar Aβ(1-40), 48 h) is given as “approximately 3 fold”. Also, the “reduction in DENN RNA expression (RT-PCR)” value in experiment [5] is on record as “four-fold”.

For the compound `N[C@@H](CCC(=O)O)C(=O)O` [glutamate], in experiment [4], the “DENN expression in cultures treated with oxidative stress factors” value is reported as “reduction in DENN expression”.

With `OO` [hydrogen peroxide], the “DENN expression in cultures treated with oxidative stress factors” value in experiment [4] is recorded as “reduction in DENN expression”.

As for `CCSCc1ccc2c(c1)c1c3c(c4c5cc(CSCC)ccc5n5c4c1n2[C@H]1C[C@](O)(C(=O)OC)[C@]5(C)O1)CNC3=O` [CEP1347], in [6], the “concentration required for inhibition of Aβ-induced cell death” value is given as “less than 300 nM”. Moreover, the JNK3 activation result in [7] was “inhibit JNK3 activation”.

Take `CCSCc1ccc2c(c1)c1c3c(c4c5cc(CSCC)ccc5n5c4c1n2C1C[C@](O)(C(=O)OC)[C@]5(C)O1)CNC3=O` [CEP11004]: the “JNK activity (c-Jun phosphorylation)” value in experiment [8] was “four-fold; also recorded: inhibits Aβ-induced c-Jun phosphorylation”. Further, in [9] (CEP11004, DENN-AS treated hippocampal cultures), the “effect on DENN AS-induced cell death” value is on record as “little effect”. Moreover, the figures for the “Aβ-induced cell death (TUNEL positive cells)” value in experiment [9] and in experiment [9] (listed as CEP1004) were “abrogated” and “inhibits effect of Aβ-induced cell death”, respectively.
